From patent US12636312B2, “Gold clusters (AuCs), composition and method for treatment of liver cirrhosis” (Wuhan Vast Conduct Science Foundation CO., LTD., priority 2020, dated 2026)

Legend:
cirrhotic model mice [1] = test: Serum biochemical testing (ALT, AST, TBil, MAO, ALB) in CCl4-induced liver cirrhosis model mice, Embodiment 3; format: in vivo
Text: (§1) 120 SPF male C57BL/6N mice, 6-8 weeks old and 16-20 g body weight, were purchased from Beijing Huafukang Experimental Animal Technology Co., Ltd. (production license number: SOCK (Jing) 2019-0008). According to body weight, they were randomly divided into 12 groups (n=10): blank control group, model group, positive control group, A-01 low dose group, A-01 high dose group, A-02 low dose group, A-02 high dose group, B-01 low-dose group, B-01 high-dose group, B-02 low-dose group, B-02 high-dose group, and C high-dose group.
(§2) Except for the blank control group, liver cirrhosis model of mice in other groups was prepared by the method of carbon tetrachloride (CCl4)-induction treatment. The modeling protocol was as follows: (1) Each mouse was intraperitoneally injected with 10% CCl4 (diluted with olive oil) at 7 μL/g body weight, twice a week for a total of 8 weeks; mice of the blank control group were injected intraperitoneally with the same amount of olive oil solvent. (2) from the 6th week, two mice were selected and killed 48 hours after the last injection every week. The appearance of the liver was observed. After the appearance was in line with the characteristics of cirrhosis (the 8th week), the liver tissue was fixed with formalin. HE staining and Masson staining were used to evaluate the model of cirrhosis.
After the successful modeling, the mice in the positive control group were given intragastrically 25 mg/kg sorafenib; the mice in the low or high dose groups of A-01, A-02, B-01 and B-02 were given by intraperitoneal injection at 2.5 or 10 mg/kg respectively of the corresponding test material; the mice in the C high dose group were given by intraperitoneal injection at a dose of 40 mg/kg of C; and the mice in the blank control group and the model group were given intraperitoneally physiological saline at 10 mL/kg. The administration was once a day for 20 consecutive days.
After the administration was completed, blood was collected from mouse orbit, and sera were obtained for biochemical testing of albumin (ALbumin, ALB), total bilirubin (TBil), alanine Alanine aminotransferase (ALT), aspartate aminotransferase (AST) and monoamine oxidase (MAO) using Zhongsheng Beikong Kit and biochemical analyzer (Siemens). The detection method was performed in strict accordance with the kit instructions.

cirrhotic model mice [2] = test: Pathological examination of liver (HE staining, Masson staining) in CCl4-induced liver cirrhosis model mice, Embodiment 3; format: in vivo, C57BL/6N mice; conditions: 25 mg/kg intragastrically 20 days
Text: as §1
as §2, with “cirrhosis. […]” for “cirrhosis.”

[3] = 25 mg/kg intragastrically 20 days
[4] = 25 mg/kg intragastrically 20 days, listed as positive control
[5] = 25 mg/kg intragastrically 20 days, listed as positive control drug

SMILES: CNC(=O)c1cc(Oc2ccc(NC(=O)Nc3ccc(Cl)c(C(F)(F)F)c3)cc2)ccn1 [sorafenib, Sorafenib]
- serum ALT level versus model group (cirrhotic model mice [1]; [3]): significantly reduced
- serum AST level versus model group (cirrhotic model mice [1]; [3]): significantly reduced
- serum TBIL level versus model group (cirrhotic model mice [1]; [3]): significantly reduced
- serum ALB level versus model group (cirrhotic model mice [1]; [4]): did not significantly affect
- serum MAO activity versus model group (cirrhotic model mice [1]; [4]): did not decrease
- serum ALB level versus model group (cirrhotic model mice [1]; [5]): no significant effect
- serum MAO activity versus model group (cirrhotic model mice [1]; [5]): no effect
- serum MAO activity (cirrhotic model mice [1]; 25 mg/kg intragastrically 20 days, model group 21.5±0.7): 21.3±2.1 U/L
- serum AST activity (cirrhotic model mice [1]; 25 mg/kg intragastrically 20 days, model group 192.0±11.3): 165.5±11.6 U/L
- serum ALT activity (cirrhotic model mice [1]; 25 mg/kg intragastrically once a day for 20 days, model group 188.5±4.9): 42.8±5.4 U/L
- HE staining: liver damages versus model group (cirrhotic model mice [2]): significant reduction of liver damages
